The molecules below were run against T1, HDM2 (Homo sapiens, UniProt Q00987) (assay: HDM2 FRET assay (inhibition of binding of FITC labeled p53-pocket peptide to HDM2)). Details: 0.5 nM HDM2 (residues 17 to 125), 3nM peptide, two hour incubation at room temperature; read-out: FRET IC50.
T1 construct: Thioredoxin (N); made in house; host or cells: E. coli strain BL21(DE3)Rosetta
Procedure, shortened: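 Displacement of FITC-p53 peptide (3 nM) from His-tagged HDM2 (0.5 nM) is measured by Tb-to-fluorescein FRET in PBS, 0.01% BSA, 0.01% Tween-20. IC50 values derive from 10-point curves.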

T1 sequence (Q00987 17-125): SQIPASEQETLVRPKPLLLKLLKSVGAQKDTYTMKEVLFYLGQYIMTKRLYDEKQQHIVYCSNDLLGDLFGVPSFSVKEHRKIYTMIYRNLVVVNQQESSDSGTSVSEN

| Structure (SMILES) | IC50 [nM] |
| --- | --- |
| C[C@H]1CC[C@H](Cn2c(N3CCOCC34CCC4)nc3nc(-c4noc(=O)[nH]4)nc(-c4cccc(Cl)c4)c32)CC1 [Example 16.80, 3-[6-(3-chlorophenyl)-7-[(trans-4-methylcyclohexyl)methyl]-8-(8-oxa-5-azaspiro[3.5]non-5-yl)-7H-purin-2-yl]-1,2,4-oxadiazol-5(4H)-one] | 8.7 |
| C[C@H]1CC[C@H](Cn2c(N3CCO[C@H]4CCC[C@@H]43)nc3nc(-c4noc(=O)[nH]4)nc(-c4cccc(Cl)c4)c32)CC1 [Example 16.81, 3-{6-(3-chlorophenyl)-8-[(4aS,7aS)-hexahydrocyclopenta [b][1,4]oxazin-4(4aH)-yl]-7-[(trans-4-methylcyclohexyl)methyl]-7H-purin-2-yl}-1,2,4-oxadiazol-5(4H)-one] | 105 |
| C[C@H]1CC[C@H](Cn2c(N3CCO[C@@H]4CCC[C@H]43)nc3nc(-c4noc(=O)[nH]4)nc(-c4cccc(Cl)c4)c32)CC1 [Example 16.82, 3-{6-(3-chlorophenyl)-8-[(4aR,7aR)-hexahydrocyclopenta [b][1,4]oxazin-4(4aH)-yl]-7-[(trans-4-methylcyclohexyl)methyl]-7H-purin-2-yl}-1,2,4-oxadiazol-5(4H)-one] | 1.1 |
| C[C@H]1CC[C@H](Cn2c(N3CCO[C@H]4CCC[C@@H]43)nc3nc(-c4n[nH]c(=O)o4)nc(-c4cccc(Cl)c4)c32)CC1 [Example 16.83, 5-{6-(3-chlorophenyl)-8-[(4aS,7aS)-hexahydrocyclopenta [b][1,4]oxazin-4(4aH)-yl]-7-[(trans-4-methylcyclohexyl)methyl]-7H-purin-2-yl}-1,3,4-oxadiazol-2(3H)-one] | 186 |
| C[C@H]1CC[C@H](Cn2c(N3CCO[C@@H]4CCC[C@H]43)nc3nc(-c4n[nH]c(=O)o4)nc(-c4cccc(Cl)c4)c32)CC1 [Example 16.84, 5-{6-(3-chlorophenyl)-8-[(4aR,7aR)-hexahydrocyclopenta [b][1,4]oxazin-4(4aH)-yl]-7-[(trans-4-methylcyclohexyl)methyl]-7H-purin-2-yl}-1,3,4-oxadiazol-2(3H)-one] | 2.47 |
| COC[C@H](Nc1nc2nc(-c3noc(=O)[nH]3)nc(-c3cccc(Cl)c3)c2n1C[C@H]1CC[C@H](C)CC1)c1ccccc1 [Example 16.85, 3-{6-(3-chlorophenyl)-8-{[(1R)-2-methoxy-1-phenylethyl]amino}-7-[(trans-4-methylcyclohexyl)methyl]-7H-purin-2-yl}-1,2,4-oxadiazol-5(4H)-one] | 2.87 |
| C[C@H]1CC[C@H](Cn2c(N3CCO[C@H]4CCC[C@@H]43)nc3nc(-c4noc(=O)[nH]4)nc(-c4cncc(Cl)c4)c32)CC1 [Example 16.86, 3-{6-(5-chloropyridin-3-yl)-8-[(4aS,7aS)-hexahydrocyclopenta [b][1,4]oxazin-4(4aH)-yl]-7-[(trans-4-methylcyclohexyl)methyl]-7H-purin-2-yl}-1,2,4-oxadiazol-5(4H)-one] | 344 |
| C[C@H]1CC[C@H](Cn2c(N3CCO[C@@H]4CCC[C@H]43)nc3nc(-c4noc(=O)[nH]4)nc(-c4cncc(Cl)c4)c32)CC1 [Example 16.87, 3-{6-(5-chloropyridin-3-yl)-8-[(4aR,7aR)-hexahydrocyclopenta [b][1,4]oxazin-4(4aH)-yl]-7-[(trans-4-methylcyclohexyl)met52hyl]-7H-purin-2-yl}-1,2,4-oxadiazol-5(4H)-one] | 1.56 |
| C[C@H]1CC[C@H](Cn2c(N3CCOCC34CC4)nc3nc(-c4n[nH]c(=O)o4)nc(-c4cccc(Cl)c4)c32)CC1 [Example 16.88, 5-[6-(3-chlorophenyl)-7-[(trans-4-methylcyclohexyl)methyl]-8-(7-oxa-4-azaspiro[2.5]oct-4-yl)-7H-purin-2-yl]-1,3,4-oxadiazol-2(3H)-one] | 39.1 |
| C[C@H]1CC[C@H](Cn2c(N3CCOCC34CCC4)nc3nc(-c4n[nH]c(=O)o4)nc(-c4cccc(Cl)c4)c32)CC1 [Example 16.89, 5-[6-(3-chlorophenyl)-7-[(trans-4-methylcyclohexyl)methyl]-8-(8-oxa-5-azaspiro[3.5]non-5-yl)-7H-purin-2-yl]-1,3,4-oxadiazol-2(3H)-one] | 25 |
| C[C@H]1CC[C@H](Cn2c(N3CCO[C@@H]4CCC[C@H]43)nc3nc(-c4n[nH]c(=O)o4)nc(-c4cncc(Cl)c4)c32)CC1 [Example 16.90, 5-{6-(5-chloropyridin-3-yl)-8-[(4aR,7aR)-hexahydrocyclopenta [b][1,4]oxazin-4(4aH)-yl]-7-[(trans-4-methylcyclohexyl)methyl]-7H-purin-2-yl}-1,3,4-oxadiazol-2(3H)-one] | 2.28 |
| C[C@H]1CC[C@H](Cn2c(N3CCO[C@H]4CCC[C@@H]43)nc3nc(-c4n[nH]c(=O)o4)nc(-c4cncc(Cl)c4)c32)CC1 [Example 16.91, 5-{6-(5-chloropyridin-3-yl)-8-[(4aS,7aS)-hexahydrocyclopenta [b][1,4]oxazin-4(4aH)-yl]-7-[(trans-4-methylcyclohexyl)methyl]-7H-purin-2-yl}-1,3,4-oxadiazol-2(3H)-one] | 403 |
| C[C@H]1CC[C@H](Cn2c(N3CCOC[C@H]3c3ccccc3F)nc3nc(-c4noc(=O)[nH]4)nc(-c4cncc(Cl)c4)c32)CC1 [Example 16.92, 3-{6-(5-chloropyridin-3-yl)-8-[(3R)-3-(2-fluorophenyl)morpholin-4-yl]-7-[(trans-4-methylcyclohexyl)methyl]-7H-purin-2-yl}-1,2,4-oxadiazol-5(4H)-one] | 0.585 |
| C[C@H]1CC[C@H](Cn2c(N3CCOC[C@H]3c3ccc(F)cc3)nc3nc(-c4noc(=O)[nH]4)nc(-c4cncc(Cl)c4)c32)CC1 [Example 16.93, 3-{6-(5-chloropyridin-3-yl)-8-[(3R)-3-(4-fluorophenyl)morpholin-4-yl]-7-[(trans-4-methylcyclohexyl)methyl]-7H-purin-2-yl}-1,2,4-oxadiazol-5(4H)-one] | 1.37 |
| C[C@H]1CC[C@H](Cn2c(N3CCOC[C@H]3c3ccc(F)cc3)nc3nc(-c4n[nH]c(=O)o4)nc(-c4cncc(Cl)c4)c32)CC1 [Example 16.94, 5-{6-(5-chloropyridin-3-yl)-8-[(3R)-3-(4-fluorophenyl)morpholin-4-yl]-7-[(trans-4-methylcyclohexyl)methyl]-7H-purin-2-yl}-1,3,4-oxadiazol-2(3H)-one] | 1.98 |
| C[C@H]1CC[C@H](Cn2c(N3CCOC[C@H]3c3ccccc3F)nc3nc(-c4n[nH]c(=O)o4)nc(-c4cncc(Cl)c4)c32)CC1 [Example 16.95, 5-{6-(5-chloropyridin-3-yl)-8-[(3R)-3-(2-fluorophenyl)morpholin-4-yl]-7-[(trans-4-methylcyclohexyl)methyl]-7H-purin-2-yl}-1,3,4-oxadiazol-2(3H)-one] | 0.494 |
| C[C@H]1CC[C@H](Cn2c(N3CCOC[C@H]3c3ccncc3)nc3nc(-c4noc(=O)[nH]4)nc(-c4cccc(Cl)c4)c32)CC1 [Example 16.96, 3-{6-(3-chlorophenyl)-7-[(trans-4-methylcyclohexyl)methyl]-8-[(3R)-3-pyridin-4-ylmorpholin-4-yl]-7H-purin-2-yl}-1,2,4-oxadiazol-5(4H)-one] | 3.29 |
| C[C@H]1CC[C@H](Cn2c(N3CCOC[C@H]3c3ccncc3)nc3nc(-c4n[nH]c(=O)o4)nc(-c4cccc(Cl)c4)c32)CC1 [Example 16.97, 5-{6-(3-chlorophenyl)-7-[(trans-4-methylcyclohexyl)methyl]-8-[(3R)-3-pyridin-4-ylmorpholin-4-yl]-7H-purin-2-yl}-1,3,4-oxadiazol-2(3H)-one] | 3.81 |
| C[C@H]1CC[C@H](Cn2c(N3CCOC[C@H]3c3ccccn3)nc3nc(-c4noc(=O)[nH]4)nc(-c4cccc(Cl)c4)c32)CC1 [Example 16.98, 3-{6-(3-chlorophenyl)-7-[(trans-4-methylcyclohexyl)methyl]-8-[(3R)-3-pyridin-2-ylmorpholin-4-yl]-7H-purin-2-yl}-1,2,4-oxadiazol-5(4H)-one] | 1.61 |
| C[C@H]1CC[C@H](Cn2c(N3CCOC[C@H]3c3ccccn3)nc3nc(-c4n[nH]c(=O)o4)nc(-c4cccc(Cl)c4)c32)CC1 [Example 16.99, 5-{6-(3-chlorophenyl)-7-[(trans-4-methylcyclohexyl)methyl]-8-[(3R)-3-pyridin-2-ylmorpholin-4-yl]-7H-purin-2-yl}-1,3,4-oxadiazol-2(3H)-one] | 1.98 |
| C[C@@H]1OCCN(c2nc3nc(-c4n[nH]c(=O)o4)nc(-c4cncc(Cl)c4)c3n2C[C@H]2CC[C@H](C)CC2)[C@@H]1C [Example 16.103, 5-{6-(5-chloropyridin-3-yl)-8-[(2S,3R)-2,3-dimethylmorpholin-4-yl]-7-[(trans-4-methylcyclohexyl)methyl]-7H-purin-2-yl}-1,3,4-oxadiazol-2(3H)-one] | 140 |
| C[C@H]1CC[C@H](Cn2c(N3CCC[C@H]3CF)nc3nc(-c4n[nH]c(=O)o4)nc(-c4cncc(Cl)c4)c32)CC1 [Example 16.104, 5-{6-(5-chloropyridin-3-yl)-8-[(2S)-2-(fluoromethyl)pyrrolidin-1-yl]-7-[(trans-4-methylcyclohexyl)methyl]-7H-purin-2-yl}-1,3,4-oxadiazol-2(3H)-one] | 3.91 |
| C[C@@H]1COC[C@@H](C)N1c1nc2nc(-c3n[nH]c(=O)o3)nc(-c3cncc(Cl)c3)c2n1C[C@H]1CC[C@H](C)CC1 [Example 16.105, 5-{6-(5-chloropyridin-3-yl)-8-[(3R,5R)-3,5-dimethylmorpholin-4-yl]-7-[(trans-4-methylcyclohexyl)methyl]-7H-purin-2-yl}-1,3,4-oxadiazol-2(3H)-one] | 11 |
| C[C@H]1CC[C@H](Cn2c(N3CCC[C@H]3C(F)(F)F)nc3nc(-c4n[nH]c(=O)o4)nc(-c4cncc(Cl)c4)c32)CC1 [Example 16.106, 5-{6-(5-chloropyridin-3-yl)-7-[(trans-4-methylcyclohexyl)methyl]-8-[(2S)-2-(trifluoromethyl)pyrrolidin-1-yl]-7H-purin-2-yl} -1,3,4-oxadiazol-2(3H)-one] | 0.825 |

Source: EP2951180B1, “2,6,7,8 SUBSTITUTED PURINES AS HDM2 INHIBITORS” (Merck Sharp & Dohme Corp., priority 2013, dated 2014)
